Experiment [1] in a line: In vitro effect on microtubule assembly relative to that of Taxol, expressed as ED50/ED50 (Taxol=1). The format is functional.
The next experiment relates to B16. The experiment is described as follows: In vitro effect on B16 melanoma cytotoxicity relative to that of Taxol, expressed as ED50/ED50 (Taxol=1). The format is functional, Mus musculus.

`CC(=O)O[C@H]1C(=O)[C@@]2(C)[C@H]([C@H](OC(=O)c3ccccc3)[C@]3(O)C[C@H](OC(=O)[C@H](O)[C@@H](N)c4ccccc4)C(C)=C1C3(C)C)[C@]1(OC(C)=O)CO[C@@H]1C[C@@H]2O`: in experiment [1], the ED50 ratio was 21. As to `COc1ccc(C(=O)N[C@@H](c2ccccc2)[C@@H](O)C(=O)O[C@H]2C[C@@]3(O)[C@@H](OC(=O)c4ccccc4)[C@@H]4[C@]5(OC(C)=O)CO[C@@H]5C[C@H](O)[C@@]4(C)C(=O)[C@H](OC(C)=O)C(=C2C)C3(C)C)cc1`, the results for the ED50 ratio (in experiment [1]; in the experiment with B16) were 0.6 and 1.3, respectively. In the same order, the values of `CC(=O)O[C@H]1C(=O)[C@@]2(C)[C@H]([C@H](OC(=O)c3ccccc3)[C@]3(O)C[C@H](OC(=O)[C@H](O)[C@@H](NC(=O)c4ccccc4)c4ccccc4)C(C)=C1C3(C)C)[C@]1(OC(C)=O)CO[C@@H]1C[C@@H]2O` [PACLITAXEL] are 1 and 1.

In the case of `CC(=O)O[C@H]1C(=O)[C@@]2(C)[C@H]([C@H](OC(=O)c3ccccc3)[C@]3(O)C[C@H](OC(=O)[C@H](O)[C@@H](NC(=O)c4ccc([N+](=O)[O-])cc4)c4ccccc4)C(C)=C1C3(C)C)[C@]1(OC(C)=O)CO[C@@H]1C[C@@H]2O`, the figures for the ED50 ratio (in experiment [1]; in the experiment on B16) were 2 and 20.7, respectively.

On to `CC(=O)O[C@H]1C(=O)[C@@]2(C)[C@H]([C@H](OC(=O)c3ccccc3)[C@]3(O)C[C@H](OC(=O)[C@H](O)[C@@H](NC(=O)c4ccc(C)cc4)c4ccccc4)C(C)=C1C3(C)C)[C@]1(OC(C)=O)CO[C@@H]1C[C@@H]2O`, for which the ED50 ratio in experiment [1] came to 1.6; in the experiment on B16, 1.4. The matching figures for `CC(=O)O[C@H]1C(=O)[C@@]2(C)[C@H]([C@H](OC(=O)c3ccccc3)[C@]3(O)C[C@H](OC(=O)[C@H](O)[C@@H](NC(=O)c4cccc(N(C)C)c4)c4ccccc4)C(C)=C1C3(C)C)[C@]1(OC(C)=O)CO[C@@H]1C[C@@H]2O`: 1.4 and 1.6. Turning to `CC(=O)O[C@H]1C(=O)[C@@]2(C)[C@H]([C@H](OC(=O)c3ccccc3)[C@]3(O)C[C@H](OC(=O)[C@H](O)[C@@H](NC(=O)c4ccc(Cl)c(Cl)c4)c4ccccc4)C(C)=C1C3(C)C)[C@]1(OC(C)=O)CO[C@@H]1C[C@@H]2O`, the ED50 ratio stood at 2.1 in experiment [1] and 10.6 in the experiment with B16. The matching figures for `CC(=O)O[C@H]1C(=O)[C@@]2(C)[C@H]([C@H](OC(=O)c3ccccc3)[C@]3(O)C[C@H](OC(=O)[C@H](O)[C@@H](NC(=O)c4ccc(F)cc4)c4ccccc4)C(C)=C1C3(C)C)[C@]1(OC(C)=O)CO[C@@H]1C[C@@H]2O`: 1.2 and 4.3.

In the case of `CC(=O)O[C@H]1C(=O)[C@@]2(C)[C@H]([C@H](OC(=O)c3ccccc3)[C@]3(O)C[C@H](OC(=O)[C@H](O)[C@@H](NC(=O)c4cccc(Cl)c4)c4ccccc4)C(C)=C1C3(C)C)[C@]1(OC(C)=O)CO[C@@H]1C[C@@H]2O`, the ED50 ratio in experiment [1] came out at 2; with B16, 1.8. The matching figures for `CC(=O)O[C@H]1C(=O)[C@@]2(C)[C@H]([C@H](OC(=O)c3ccccc3)[C@]3(O)C[C@H](OC(=O)[C@H](O)[C@@H](NC(=O)c4ccc(Cl)cc4)c4ccccc4)C(C)=C1C3(C)C)[C@]1(OC(C)=O)CO[C@@H]1C[C@@H]2O`: 2.4 and 1.5.

In the case of `CC(=O)O[C@H]1C(=O)[C@@]2(C)[C@H]([C@H](OC(=O)c3ccccc3)[C@]3(O)C[C@H](OC(=O)[C@H](O)[C@@H](NC(=O)c4ccccc4C)c4ccccc4)C(C)=C1C3(C)C)[C@]1(OC(C)=O)CO[C@@H]1C[C@@H]2O`, the ED50 ratio in experiment [1] stood at 1.9; in the experiment on B16 it was 7.5.

For the origin of these results see ChEMBL document CHEMBL1150492, “Topliss approach to the synthesis of biologically active substituted N-benzoyl taxol analogues” (1994).
